Columns and labels:
[1] = system: Colon cancer cells (HT-29 cell line); experiment: ERK inhibition cell proliferation assay (3H-thymidine uptake); assay type: cell-based; settings: Homo sapiens, 3 days
Procedure: Compounds were assayed for the inhibition of ERK2 by a cell proliferation assay. In this assay, a complete media was prepared by adding 10% fetal bovine serum and penicillin/streptomycin solution to RPMI 1640 medium (JRH Biosciences). Colon cancer cells (HT-29 cell line) were added to each of 84 wells of a 96 well plate at a seeding density of 10,000 cells/well/150 μL. The cells were allowed to attach to the plate by incubating at 37° C. for 2 hours. A solution of test compound was prepared in complete media by serial dilution to obtain the following concentrations: 20 μM, 6.7 μM, 2.2 μM, 0.74 μM, 0.25 μM, and 0.08 μM. The test compound solution (50 μL) was added to each of 72 cell-containing wells. To the 12 remaining cell-containing wells, only complete media […] was added to form a control group in order to measure maximal proliferation. To the remaining 12 empty wells, complete media was added to form a vehicle control group in order to measure background. The plates were incubated at 37° C. for 3 days. A stock solution of ^3H-thymidine (1 mCi/mL, New England Nuclear, Boston, Mass.) was diluted to 20 μCi/mL in RPMI medium then 20 μL of this solution was added to each well. The plates were further incubated at 37° C. for 8 hours then harvested and analyzed for ^3H-thymidine uptake using a liquid scintillation counter.

KDR = KDR (Homo sapiens, UniProt P35968); experiment: KDR inhibition, standard coupled enzyme assay; assay type: biochemical; settings: read-out: percent inhibition of KDR
Procedure: Compounds were screened for their ability to inhibit KDR using a standard coupled enzyme assay (Fox et al., Protein Sci., (1998) 7, 2249). Assays were carried out in a mixture of 200 mM HEPES 7.5, 10 mM MgCl2, 25 mM NaCl , 1 mM DTT and 1.5% DMSO. Final substrate concentrations in the assay were 300 μM ATP (Sigma Chemicals) and 10 μM poly E4Y (Sigma). Assays were carried out at 37° C. and 30 nM KDR. Final concentrations of the components of the coupled enzyme system were 2.5 mM phosphoenolpyruvate, 200 μM NADH, 30 μg/ML pyruvate kinase and 10 μg/ml lactate dehydrogenase.
An assay stock buffer solution was prepared containing all of the reagents listed above, with the exception of ATP and the test compound of interest. 177 μl of the stock solution was placed in a 96 well plate followed by addition of 3 μl of 2 mM DMSO stock containing the test compound (final compound concentration 30 μM). The plate was preincubated for about 10 minutes at 37° C. and the reaction initiated by addition of 20 μl of ATP (final concentration 300 μM). Rates of reaction were obtained using a Molecular Devices plate reader (Sunnyvale, Calif.) over a 5 minute read time at 37° C.

ERK2 = ERK2 (Homo sapiens, UniProt P28482); experiment: ERK2 inhibition, spectrophotometric coupled-enzyme assay; assay type: biochemical; settings: activated ERK2 10 nM, 65 μM ATP, 30° C., pH 7.5; read-out: ERK2 Inhibitory Activity (Ki class)
Aurora2 = biological target: T1, Aurora2 (Homo sapiens, UniProt O14965); experiment: Aurora inhibition, standard coupled enzyme assay; assay type: biochemical; settings: 40 μM ATP, 30° C.; read-out: Aurora2 Inhibitory Activity (IC50 class)
T1 sequence (O14965 1-403): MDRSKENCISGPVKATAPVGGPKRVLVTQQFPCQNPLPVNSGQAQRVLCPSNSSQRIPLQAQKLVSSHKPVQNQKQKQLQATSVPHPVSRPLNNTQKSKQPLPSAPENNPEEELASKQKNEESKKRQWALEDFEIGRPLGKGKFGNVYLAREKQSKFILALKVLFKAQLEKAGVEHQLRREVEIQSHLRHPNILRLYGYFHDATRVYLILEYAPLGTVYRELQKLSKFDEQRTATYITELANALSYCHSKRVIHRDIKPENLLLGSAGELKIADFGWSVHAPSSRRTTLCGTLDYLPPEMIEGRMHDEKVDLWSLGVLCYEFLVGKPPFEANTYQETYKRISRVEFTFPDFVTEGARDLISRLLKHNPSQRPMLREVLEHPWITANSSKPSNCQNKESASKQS
Procedure: Compounds were screened in the following manner for their ability to inhibit Aurora using a standard coupled enzyme assay. To an assay stock buffer solution containing 0.1M HEPES 7.5, 10 mM MgCl2, 25 mM NaCl, 2.5 mM phosphoenolpyruvate, 300 μM NADH, 30 μg/mL pyruvate kinase, 10 μg/mL lactate dehydrogenase, 40 μM ATP, and 800 μM peptide (LRRASLG, American Peptide, Sunnyvale, Calif.) was added a 30 μM solution of the compound in DMSO and the resulting mixture incubated at 30° C. for 10 min. The reaction was initiated by the addition of 10 μL of 70 nM Aurora and 1 mM DTT. The rates of reaction were obtained by monitoring absorbance at 340 nm over a 5 minute read time at 30° C. using a BioRad Ultramark plate reader (Hercules, Calif.). The IC50 was determined from the rate data as a function of inhibitor concentration.
The compound numbers correspond to the compound numbers in Table 1.

AKT = AKT inhibition, standard coupled enzyme assay; assay type: biochemical
Procedure: Compounds were screened for their ability to inhibit AKT using a standard coupled enzyme assay (Fox et al., Protein Sci., (1998) 7, 2249). Assays were carried out in a mixture of 100 mM HEPES 7.5, 10 mM MgCl2, 25 mM NaCl , 1 mM DTT and 1.5% DMSO. Final substrate concentrations in the assay were 170 μM ATP (Sigma Chemicals) and 200 μM peptide (RPRAATF, American Peptide, Sunnyvale, Calif.). Assays were carried out at 30° C. and 45 nM AKT. Final concentrations of the components of the coupled enzyme system were 2.5 mM phosphoenolpyruvate, 300 μM NADH, 30 μg/ML pyruvate kinase and 10 μg/ml lactate dehydrogenase.
An assay stock buffer solution was prepared containing all of the reagents listed above, with the exception of AKT, DTT, and the test compound of interest. 56 μl of the stock solution was placed in a 384 well plate followed by addition of 1 μl of 2 mM DMSO stock containing the test compound (final compound concentration 30 μM). The plate was preincubated for about 10 minutes at 30° C. and the reaction initiated by addition of 10 μl of enzyme (final concentration 45 nM) and 1 mM DTT. Rates of reaction were obtained using a BioRad Ultramark plate reader (Hercules, Calif.) over a 5 minute read time at 30° C.

Sequence of ERK2 (P28482 whole entry): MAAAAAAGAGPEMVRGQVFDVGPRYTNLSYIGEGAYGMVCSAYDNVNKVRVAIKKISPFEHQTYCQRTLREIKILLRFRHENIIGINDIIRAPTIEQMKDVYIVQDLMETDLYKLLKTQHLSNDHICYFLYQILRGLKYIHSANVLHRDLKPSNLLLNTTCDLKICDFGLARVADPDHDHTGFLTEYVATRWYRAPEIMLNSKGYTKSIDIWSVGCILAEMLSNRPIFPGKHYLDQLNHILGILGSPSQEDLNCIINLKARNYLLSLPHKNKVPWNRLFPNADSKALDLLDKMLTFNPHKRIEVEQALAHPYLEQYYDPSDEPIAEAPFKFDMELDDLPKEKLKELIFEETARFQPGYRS
Sequence of KDR (P35968 20-1356, species assumed): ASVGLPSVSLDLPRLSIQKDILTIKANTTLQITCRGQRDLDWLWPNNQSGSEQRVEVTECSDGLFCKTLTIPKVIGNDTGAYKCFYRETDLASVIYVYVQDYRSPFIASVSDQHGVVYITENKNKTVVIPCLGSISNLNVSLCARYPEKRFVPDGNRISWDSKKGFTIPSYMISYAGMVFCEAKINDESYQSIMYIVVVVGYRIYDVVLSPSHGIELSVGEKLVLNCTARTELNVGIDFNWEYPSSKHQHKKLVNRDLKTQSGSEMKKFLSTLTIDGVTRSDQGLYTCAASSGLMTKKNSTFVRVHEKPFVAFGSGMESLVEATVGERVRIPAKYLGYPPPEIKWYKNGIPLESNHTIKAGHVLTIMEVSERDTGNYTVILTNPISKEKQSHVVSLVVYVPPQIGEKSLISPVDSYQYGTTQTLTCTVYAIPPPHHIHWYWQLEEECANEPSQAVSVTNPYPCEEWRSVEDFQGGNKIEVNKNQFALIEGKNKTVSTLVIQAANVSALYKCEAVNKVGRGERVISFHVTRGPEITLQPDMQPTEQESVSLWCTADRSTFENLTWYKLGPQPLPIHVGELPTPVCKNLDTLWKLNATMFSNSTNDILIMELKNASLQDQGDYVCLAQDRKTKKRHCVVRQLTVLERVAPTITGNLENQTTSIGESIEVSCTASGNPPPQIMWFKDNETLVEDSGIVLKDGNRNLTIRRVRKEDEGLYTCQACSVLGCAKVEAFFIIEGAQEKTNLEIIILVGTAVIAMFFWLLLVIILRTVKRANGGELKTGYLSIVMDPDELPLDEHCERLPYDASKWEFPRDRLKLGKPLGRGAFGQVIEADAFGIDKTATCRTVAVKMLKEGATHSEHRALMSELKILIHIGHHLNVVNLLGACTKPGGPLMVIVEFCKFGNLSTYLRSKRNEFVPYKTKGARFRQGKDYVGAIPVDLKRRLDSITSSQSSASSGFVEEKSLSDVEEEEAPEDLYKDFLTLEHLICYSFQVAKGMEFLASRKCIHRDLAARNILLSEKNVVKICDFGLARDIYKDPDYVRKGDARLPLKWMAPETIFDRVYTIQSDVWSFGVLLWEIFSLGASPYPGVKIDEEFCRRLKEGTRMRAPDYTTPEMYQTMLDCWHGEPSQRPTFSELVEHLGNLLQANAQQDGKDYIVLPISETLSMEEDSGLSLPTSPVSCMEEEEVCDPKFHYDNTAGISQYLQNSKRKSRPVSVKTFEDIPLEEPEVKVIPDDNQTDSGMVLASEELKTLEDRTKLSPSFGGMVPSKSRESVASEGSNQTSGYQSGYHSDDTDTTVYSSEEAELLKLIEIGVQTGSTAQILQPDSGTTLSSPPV

Structure (SMILES) | IC50 [1] [nM] | inhibition at 2 µM (KDR) [%] | Ki (ERK2) [nM] | IC50 (Aurora2) [nM] | inhibit AKT (AKT)
O=C(NCc1ccc2c(c1)CCO2)c1cc(-c2[nH]ncc2-c2cccc(Br)c2)c[nH]1 [II-43] | < 10000 | > 40 | < 1000 |  | 
O=C(NC(CO)c1ccccc1)c1cc(-c2[nH]ncc2-c2cccc(Br)c2)c[nH]1 (centres unmarked) [II-45] | < 10000 |  | < 1000 |  | 
O=C(NCc1ccncc1)c1cc(-c2n[nH]cc2-c2cc(Cl)cc(Cl)c2)c[nH]1 [II-48] | < 10000 | > 40 | < 1000 | < 5000 | 
O=C(NOCc1ccccc1)c1cc(-c2[nH]ncc2-c2cccc(F)c2)c[nH]1 [II-89] |  |  | < 1000 | < 5000 | inhibit AKT
NS(=O)(=O)c1ccc(CNC(=O)c2cc(-c3[nH]ncc3-c3cccc(Br)c3)c[nH]2)cc1 [II-94] |  |  | < 1000 |  | inhibit AKT
